Here are results for 45 compounds from PubChem BioAssay AID643 (Vanderbilt High Throughput Screening Facility, 2007).

Activity calls are given as the source filed them. How the calls were made is not given here.

The assay deals with Muscarinic acetylcholine receptor M4 (Mus musculus) (UniProt P32211). Description: M4 muscarinic receptor activation by allosteric ligands – cell-based, confirmation (AID 643). The settings on record: HEK293 cells expressing M4, thallium flux fluorescence, 2 min; stronger effect = higher value.
Sequence of Muscarinic acetylcholine receptor M4 (Mus musculus) (P32211 whole entry, looked up): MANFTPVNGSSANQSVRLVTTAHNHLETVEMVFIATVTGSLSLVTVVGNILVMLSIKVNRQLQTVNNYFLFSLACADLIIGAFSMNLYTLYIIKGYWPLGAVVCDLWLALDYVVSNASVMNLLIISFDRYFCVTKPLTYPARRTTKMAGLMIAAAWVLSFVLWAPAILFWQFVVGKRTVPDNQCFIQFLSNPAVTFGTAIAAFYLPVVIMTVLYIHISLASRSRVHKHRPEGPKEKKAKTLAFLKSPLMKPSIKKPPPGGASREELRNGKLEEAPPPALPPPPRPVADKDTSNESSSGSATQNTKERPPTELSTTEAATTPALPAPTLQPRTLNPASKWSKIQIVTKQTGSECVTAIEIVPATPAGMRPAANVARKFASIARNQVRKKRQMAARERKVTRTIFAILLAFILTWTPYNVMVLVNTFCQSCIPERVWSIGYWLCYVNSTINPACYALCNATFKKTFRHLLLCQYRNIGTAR
Regarding `CCOC(=O)c1cc(-c2nnc(-c3ccc(Oc4ccccc4)cc3)o2)c(C)nc1C`, the response slope is 0.0113.

With `COc1cc(OC)cc(-c2nnc(Nc3nc4c(F)cccc4s3)o2)c1`, the response slope is 0.0119.

In the case of `C/C(CC1(O)C(=O)N(Cc2ccccc2)c2ccccc21)=N\O` (stereo not given), the response slope is 0.00834.

As for `O=C(Nc1nc(-c2ccc(S(=O)(=O)N3CCCC3)cc2)cs1)C1COc2ccccc2O1` (stereo not given), the response slope was 0.00604 (inactive).

Regarding `CCCCNC(=O)Nc1ccnn1C1CCCCC1`, the response slope was 0.00873.

As for `Cc1c(C#N)sc2nc(-c3ccccc3)nc(N3CCCC3)c12`, the response slope is 0.0119.

On to `CCOc1ccccc1OCCCCN1CCCC1`, for which the response slope was 0.0043 (inactive).

With `C[C@H]1OC[C@@H](C[N+](C)(C)C)O1`, the response slope is 0.0167.

On to `O=C(O)c1cc(O)c2c(c1)C(=O)c1cccc(O)c1C2=O`, for which the response slope was 0.00514 (inactive).

With `S=c1nc(C2CC2)[nH]c2ccccc12`, the response slope was -0.00904 (inactive).

`Cc1ccc(S(=O)(=O)/C(C#N)=C/c2c(N3CCN(C)CC3)nc3c(C)cccn3c2=O)cc1`: the response slope is 0.00236 (inactive).

For `CCOC(=O)C1=C[C@]2(CC)CCCN3CCc4c(n1c1ccccc41)[C@@H]32`, the response slope was 0.00841.

As to `O=C(Nc1nc(-c2ccc(S(=O)(=O)N3CCCCCC3)cc2)cs1)c1cccs1`, the response slope was 0.0142.

`O=C(Nc1nc(=O)c2ccccc2s1)c1ccccc1`: the response slope is 0.00981.

On to `CCc1cccc(NC(=O)Cn2cc3c(n2)CCCC3)c1`, for which the response slope was 0.00695 (inactive).

Consider `Cc1ccc(SCc2c(C#N)c3ccccc3n2C)cc1`, for which the response slope is 0.00835.

Consider `Cc1ccc(-c2nn(-c3ccccc3)cc2/C=C(\C#N)c2cccc(C#N)c2)o1`, for which the response slope is 0.0107.

For `CC(=O)OC(C)C[N+](C)(C)C` (stereo not given), the response slope was 0.00597 (inactive).

For `CCCCCCc1cc2cc(-c3nnc(-c4ccccc4O)o3)c(=O)oc2cc1O`, the response slope was 0.0548.

Take `Cc1csc(NC(=O)c2sc3nc(-c4cccs4)ccc3c2N)n1`: the response slope is 0.00327 (inactive).

With `COc1ccc(CCn2c(=N)c(C(=O)NCc3ccco3)cc3c(=O)n4ccccc4nc32)cc1`, the response slope was 0.000825 (inactive).

For the compound `CNS(=O)(=O)c1cccc(C(=O)OCC(=O)c2cc(C)n(-c3ccc4c(c3)OCO4)c2C)c1`, the response slope is 0.00508 (inactive).

Take `CCOC(=O)CC(=O)CSc1nc(-c2cccnc2)ccc1C#N`: the response slope was 0.00405 (inactive).

As to `Cc1c2ccncc2c(C)c2c1[nH]c1ccccc12`, the response slope is 0.0125.

`Clc1ccccc1OCCCCn1ccnc1`: the response slope is 0.00392 (inactive).

On to `Cc1nn(-c2ccc(Cl)cc2)c2sc(C(=O)N3CCN(c4ccccn4)CC3)cc12`, for which the response slope is 0.00468 (inactive).

Regarding `CCN(CC)c1ccc2cc(-c3nc4ccccc4[nH]3)c(=O)oc2c1`, the response slope is 0.0191.

For `CCCCN(CCCC)c1nc2ccccc2nc1C(C#N)C(=O)NCCCOC` (stereo not given), the response slope is 0.00562 (inactive).

For the compound `Cc1ccc(Cl)cc1N1CCN(C(=O)CN2C(=O)c3cccc4cccc2c34)CC1`, the response slope is 0.00517 (inactive).

For the compound `Fc1cccc2sc(Nc3nnc(-c4ccco4)o3)nc12`, the response slope was 0.0206.

Consider `Cc1cccc2sc(NC(=O)Cn3cccc3)nc12`, for which the response slope was 0.0102.

Consider `O=c1oc2c3c4c(cc2c(C(F)(F)F)c1CCN1CCOCC1)CCCN4CCC3`, for which the response slope was 0.0204.

As for `COc1cc(/C=C/C(=O)CC(=O)/C=C/c2ccc(O)c(OC)c2)ccc1O`, the response slope is 0.00973.

Regarding `O=c1c2ccccc2nc(-c2cccc(Cl)c2)n1O`, the response slope is 0.00746.

Regarding `CCOC(=O)c1cnn2c1[nH]c(=O)c1ccccc12`, the response slope was 0.00865.

As for `CCOc1ccc(-n2c(O)c(C=Nc3ccc(N(CC)CC)cc3)c(=O)[nH]c2=O)cc1`, the response slope is -0.00673 (inactive).

As to `N#Cc1c(NC(=O)c2ccc(Br)o2)n(-c2ccccc2)c2nc3ccccc3nc12`, the response slope was 0.00921.

Regarding `COc1ccc(-c2noc(CSc3nc4ccccc4c(=O)n3-c3ccccc3)n2)cc1OC`, the response slope was 0.00773.

In the case of `CN(C)C(CNC(=O)Nc1cccc(Cl)c1)c1cccnc1` (stereo not given), the response slope is 0.00144 (inactive).

For the compound `CCn1c(SC(C)C(=O)O)nc2sc3c(c2c1=O)CCC3` (stereo not given), the response slope was 0.0132.

On to `CN(C)c1ccc(/C=C/C(O)=C2/C(=O)N(C)C3(C)CC2c2ccccc2O3)cc1` (stereo not given), for which the response slope is 0.00464 (inactive).

With `CC(=O)c1c(C)c2c(n1CCN(C)C)CCCC2`, the response slope was 0.00747.

Turning to `Cc1ccccc1-n1nc(C)c2cc(C(=O)NCc3cccnc3)sc21`, the response slope is 0.00964.

Take `CCN(CC)C(=O)c1sc2nc(-c3cccs3)cc(-c3cccs3)c2c1N`: the response slope was -0.000749 (inactive).

In the case of `Cc1ccc(CNC(=O)c2cc3c(=O)n4ccccc4nc3n(CC3CCCO3)c2=N)cc1` (stereo not given), the response slope is 0.00307 (inactive).
